Measured values published in US7875260B2, “Imaging agents for functional imaging of lymphatic structures” (Baylor College of Medicine, priority 2006, dated 2011).

How the values were obtained:
[1] = biological target: T1, LYVE-1 present on the lymph endothelium (swine hindlimb lymph vessel) (Sus scrofa, UniProt I3LTD0); assay: Staining of lymph vessels with HA-NIR, compared with ICG; assay type: in vivo
T1 construct: LYVE-1 present on the lymph endothelium; from tissue; host or cells: live white Yorkshire swine, hindlimb lymph vessels (lymph endothelium)
T1 sequence (I3LTD0 25-326): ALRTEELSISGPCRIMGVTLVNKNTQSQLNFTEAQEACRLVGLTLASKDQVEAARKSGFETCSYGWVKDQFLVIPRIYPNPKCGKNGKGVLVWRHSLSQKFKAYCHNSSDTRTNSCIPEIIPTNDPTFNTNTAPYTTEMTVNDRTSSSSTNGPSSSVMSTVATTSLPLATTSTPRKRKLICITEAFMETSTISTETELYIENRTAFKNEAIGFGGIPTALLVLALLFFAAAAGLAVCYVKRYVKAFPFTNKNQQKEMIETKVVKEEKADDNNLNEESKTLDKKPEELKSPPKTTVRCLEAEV
Experimental: Four, two-month old, 60 lb white Yorkshire swine (K Bar Livestock, HC 69 Box 270 Sabinal, Tex.) were imaged using protocols which were approved by the Baylor College of Medicine Institutional Animal Care and Use Committee. The animals were anesthetized, intubated, and maintained with isoflurane. Animal body temperature was maintained at 100° F. using a warming blanket. At the end of the procedure, the animals were euthanized and lymph nodes resected with fluorescence guidance.
Continuous-wave optical imaging of the fluorescent NIR dyes was performed with a custom built intensified charged-coupled device (CCD). Reynolds J S, Troy T L, and Sevick-Muraca E M. Multipixel techniques for frequency-domain photon migration imaging. Biotechnol Prog 13: 669-680, 1997., incorporated herein by reference in its entirety for all purposes. Briefly, the device had three principal components: 1) a NIR-sensitive image intensifier (model FS9910C ITT Night Vision, Roanoke, Va.); 2) a 16-bit dynamic range, frame transfer CCD camera (Roper Scientific, Tucson, Ariz.); and 3) a 785-nm laser diode (Thorlabs) used to provide the excitation light for activating ICG and hyaluronan-NIR. The 785-nm laser diode beam was expanded by using a planoconvex lens and a holographic optical diffuser such that approximately 0.08 m^2 of the swine's body was illuminated. A 785-nm holographic notch band rejection filter (model HNPF-785.0-2.0, Kaiser Optical Systems, Ann Arbor, Mich.) and an 830-nm image quality bandpass filter (model 830.0-2.0, Andover, Salem, N.H.) were placed before the 28-mm Nikkor lens (Nikon) to selectively reject the excitation light and pass the emitted 830-nm wavelength. […]
Images were processed using MATLAB (The Mathworks, Natick, Mass.), ImageJ (National Institutes of Health, Bethesda, Md.), and V++ (Digital Optics, Auckland, New Zealand). […] To reveal the frequency of the pulsatile flow, which is a characteristic of pumping lymphatics, the mean fluorescence intensity from a fixed region of interest on a lymph channel was selected and plotted as a function of imaging time. […]

[2] = cited from earlier work

Compound	normalized fluorescent intensity at fixed ROI as a function of time (FIG. 10C) ([1]; image acquisition 6 min, leg lymph vessel)	propulsion of packets ([1]; intradermal, 64 μM HA-NIR or 32 μM ICG, swine hindlimb vessel)	fluorescent intensity as a function of vessel length and time (FIGS. 11C, 11D) ([1]; swine lymph vessels)	fraction broken down in the liver ([2]; liver) [%]	fraction degraded in lymph nodes ([2]; lymph nodes) [%]
CC1(C)C(/C=C/C=C/C=C/C=C2\N(CCCCS(=O)(=O)O)c3ccc4ccccc4c3C2(C)C)=[N+](CCCCS(=O)(=O)[O-])c2ccc3ccccc3c21 [ICG, indocyanine green]	fluctuation and net reduction of intensity	observed	varies with time and length along the vessel	–	–
hyaluronic acid [HA]	–	–	–	10	90
